Data taken from patent publication US7750003B2, “Compounds-943” (AstraZeneca AB, priority 2006, dated 2010).

Molecular target: recombinant mTOR (FLAG-tagged, residues 1362-2549) (Homo sapiens, UniProt P42345)
Assay: In vitro mTOR kinase assay (Test (a), AlphaScreen)
Format: biochemical
Settings: ATP 20 μM, read-out: Test (a): IC50 versus mTOR kinase
Summary of the method: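 AlphaScreen read-out: a phospho-T389 p70 S6K antibody on acceptor beads captures the phosphorylated biotin-peptide on donor beads, with signal loss indicating inhibition.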

Chain of recombinant mTOR (FLAG-tagged, residues 1362-2549) (P42345 1362-2549): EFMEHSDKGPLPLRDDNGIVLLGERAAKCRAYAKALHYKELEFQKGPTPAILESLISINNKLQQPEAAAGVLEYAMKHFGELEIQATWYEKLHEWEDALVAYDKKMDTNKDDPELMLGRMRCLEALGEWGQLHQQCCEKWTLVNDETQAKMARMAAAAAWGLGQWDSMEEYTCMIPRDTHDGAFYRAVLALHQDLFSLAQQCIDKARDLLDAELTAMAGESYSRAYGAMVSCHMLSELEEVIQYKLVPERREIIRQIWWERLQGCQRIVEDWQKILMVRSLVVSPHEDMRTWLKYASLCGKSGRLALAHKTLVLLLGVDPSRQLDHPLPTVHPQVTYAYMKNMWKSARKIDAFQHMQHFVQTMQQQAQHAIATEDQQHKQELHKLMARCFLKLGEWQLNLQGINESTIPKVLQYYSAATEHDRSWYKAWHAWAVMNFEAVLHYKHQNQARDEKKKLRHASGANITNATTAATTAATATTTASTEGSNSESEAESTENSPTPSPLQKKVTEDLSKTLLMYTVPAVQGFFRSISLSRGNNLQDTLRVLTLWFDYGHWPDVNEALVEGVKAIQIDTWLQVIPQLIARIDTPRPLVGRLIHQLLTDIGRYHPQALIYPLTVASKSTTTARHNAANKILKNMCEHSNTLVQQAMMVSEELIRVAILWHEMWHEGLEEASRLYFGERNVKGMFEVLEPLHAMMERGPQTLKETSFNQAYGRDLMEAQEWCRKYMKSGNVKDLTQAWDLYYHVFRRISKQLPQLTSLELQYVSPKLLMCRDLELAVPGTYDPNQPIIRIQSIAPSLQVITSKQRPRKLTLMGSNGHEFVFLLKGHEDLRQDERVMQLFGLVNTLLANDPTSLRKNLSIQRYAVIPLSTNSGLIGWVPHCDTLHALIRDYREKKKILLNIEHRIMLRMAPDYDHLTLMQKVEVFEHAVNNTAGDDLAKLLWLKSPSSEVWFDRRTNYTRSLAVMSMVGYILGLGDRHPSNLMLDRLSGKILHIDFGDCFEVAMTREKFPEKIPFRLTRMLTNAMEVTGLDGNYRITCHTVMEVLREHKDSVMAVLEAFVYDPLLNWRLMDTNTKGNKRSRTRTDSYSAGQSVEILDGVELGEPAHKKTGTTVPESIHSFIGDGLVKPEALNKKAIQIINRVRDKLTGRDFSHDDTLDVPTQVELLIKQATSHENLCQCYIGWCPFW

Row | SMILES | IC50 [µM]
1 | C[C@H]1COCCN1c1cc(C(C)(C)O)nc(-c2ccc(NC(=O)NCc3cnn(C)c3)cc2)n1 [Example 38, 1-[4-[4-(2-Hydroxypropan-2-yl)-6-[(3S)-3-methylmorpholin-4-yl]pyrimidin-2-yl]phenyl]-3-[(1-methylpyrazol-4-yl)methyl]urea] | 1.3
2 | C[C@H]1COCCN1c1cc(CO)nc(-c2ccc(NC(=O)NC3CC3)cc2)n1 [Example 42, 3-Cyclopropyl-1-[4-[4-(hydroxymethyl)-6-[(3S)-3-methylmorpholin-4-yl]pyrimidin-2-yl]phenyl]urea] | 0.19
3 | CNC(=O)CS(=O)(=O)Cc1cc(N2CCOC[C@@H]2C)nc(-c2ccc(NC(=O)NC3CC3)cc2)n1 [Example 43a, 2-[[2-[4-(cyclopropylcarbamoylamino)phenyl]-6-[(3S)-3-methylmorpholin-4-yl]pyrimidin-4-yl]methylsulfonyl]-N-methyl-acetamide] | 0.087
4 | C[C@H]1COCCN1c1cc(CS(=O)(=O)c2ccc(F)cc2)nc(-c2ccc(NC(=O)NC3CC3)cc2)n1 [Example 43b, 3-cyclopropyl-1-[4-[4-[(4-fluorophenyl)sulfonylmethyl]-6-[(3S)-3-methylmorpholin-4-yl]pyrimidin-2-yl]phenyl]urea] | 0.15
5 | C[C@H]1COCCN1c1cc(CS(=O)(=O)c2nccs2)nc(-c2ccc(NC(=O)NC3CC3)cc2)n1 [Example 43e, 3-cyclopropyl-1-[4-[4-[(3S)-3-methylmorpholin-4-yl]-6-(1,3-thiazol-2-ylsulfonylmethyl)pyrimidin-2-yl]phenyl]urea] | 0.13
6 | C[C@H]1COCCN1c1cc(CS(=O)(=O)c2ccccc2C(F)(F)F)nc(-c2ccc(NC(=O)NC3CC3)cc2)n1 [Example 43f, 3-cyclopropyl-1-[4-[4-[(3S)-3-methylmorpholin-4-yl]-6-[[2-(trifluoromethyl)phenyl]sulfonylmethyl]pyrimidin-2-yl]phenyl]urea] | 0.11
7 | CC(=O)NCCS(=O)(=O)Cc1cc(N2CCOC[C@@H]2C)nc(-c2ccc(NC(=O)NC3CC3)cc2)n1 [Example 43j, N-[2-[[2-[4-(cyclopropylcarbamoylamino)phenyl]-6-[(3S)-3-methylmorpholin-4-yl]pyrimidin-4-yl]methylsulfonyl]ethyl]acetamide] | 1.8
8 | CN(CCO)C(=O)Nc1ccc(-c2nc(CS(C)(=O)=O)cc(N3CCOCC3)n2)cc1 [Example 45, 1-(2-Hydroxyethyl)-1-methyl-3-[4-[4-(methylsulfonylmethyl)-6-morpholin-4-yl-pyrimidin-2-yl]phenyl]urea] | 0.66
9 | CS(=O)(=O)Cc1cc(N2CCOCC2)nc(-c2ccc(NC(=O)N3CCCCC3)cc2)n1 [Example 45a, N-[4-[4-(methylsulfonylmethyl)-6-morpholin-4-yl-pyrimidin-2-yl]phenyl]piperidine-1-carboxamide] | 0.63
10 | C[C@H]1COCCN1c1cc(CS(C)(=O)=O)nc(-c2ccc(NC(=O)N3CCC(N(C)C)CC3)cc2)n1 [Example 45ab, 4-dimethylamino-N-[4-[4-[(3S)-3-methylmorpholin-4-yl]-6-(methylsulfonylmethyl)pyrimidin-2-yl]phenyl]piperidine-1-carboxamide] | 0.39
11 | CC(C)CNC(=O)Nc1ccc(-c2nc(CS(C)(=O)=O)cc(N3CCOCC3)n2)cc1 [Example 45b, 1-(2-methylpropyl)-3-[4-[4-(methylsulfonylmethyl)-6-morpholin-4-yl-pyrimidin-2-yl]phenyl]urea] | 0.12
12 | COCCCNC(=O)Nc1ccc(-c2nc(CS(C)(=O)=O)cc(N3CCOCC3)n2)cc1 [Example 45c, 1-(3-methoxypropyl)-3-[4-[4-(methylsulfonylmethyl)-6-morpholin-4-yl-pyrimidin-2-yl]phenyl]urea] | 0.082
13 | CN(C)CCCCNC(=O)Nc1ccc(-c2nc(CS(C)(=O)=O)cc(N3CCOCC3)n2)cc1 [Example 45d, 1-(4-dimethylaminobutyl)-3-[4-[4-(methylsulfonylmethyl)-6-morpholin-4-yl-pyrimidin-2-yl]phenyl]urea] | 0.56
14 | CS(=O)(=O)Cc1cc(N2CCOCC2)nc(-c2ccc(NC(=O)NCCN3CCNC3=O)cc2)n1 [Example 45e, 1-[4-[4-(methylsulfonylmethyl)-6-morpholin-4-yl-pyrimidin-2-yl]phenyl]-3-[2-(2-oxoimidazolidin-1-yl)ethyl]urea] | 0.56
15 | CS(=O)(=O)Cc1cc(N2CCOCC2)nc(-c2ccc(NC(=O)N3CCCC3)cc2)n1 [Example 45f, N-[4-[4-(methylsulfonylmethyl)-6-morpholin-4-yl-pyrimidin-2-yl]phenyl]pyrrolidine-1-carboxamide] | 1.6
16 | CS(=O)(=O)Cc1cc(N2CCOCC2)nc(-c2ccc(NC(=O)N3CCC(O)CC3)cc2)n1 [Example 45h, 4-hydroxy-N-[4-[4-(methylsulfonylmethyl)-6-morpholin-4-yl-pyrimidin-2-yl]phenyl]piperidine-1-carboxamide] | 0.14

The next compounds have a lower IC50 than those just listed; values first:

Row | IC50 [µM] | SMILES
17 | 0.051 | C[C@H]1COCCN1c1cc(C(C)(C)O)nc(-c2ccc(NC(=O)NC3CC3)cc2)n1 [Example 37, 3-Cyclopropyl-1-[4-[4-(2-hydroxypropan-2-yl)-6-[(3S)-3-methylmorpholin-4-yl]pyrimidin-2-yl]phenyl]urea]
18 | 0.075 | C[C@H]1COCCN1c1cc(CO)nc(-c2ccc(NC(=O)Nc3ccon3)cc2)n1 [Example 39, 1-[4-[4-(Hydroxymethyl)-6-[(3S)-3-methylmorpholin-4-yl]pyrimidin-2-yl]phenyl]-3-(1,2-oxazol-3-yl)urea]
19 | 0.076 | C[C@H]1COCCN1c1cc(CS(=O)(=O)c2ccncc2)nc(-c2ccc(NC(=O)NC3CC3)cc2)n1 [Example 43, 3-Cyclopropyl-1-[4-[4-[(3S)-3-methylmorpholin-4-yl]-6-(pyridin-4-ylsulfonylmethyl)pyrimidin-2-yl]phenyl]urea]
20 | 0.013 | CC(=O)Nc1ccc(S(=O)(=O)Cc2cc(N3CCOC[C@@H]3C)nc(-c3ccc(NC(=O)NC4CC4)cc3)n2)cc1 [Example 43c, N-[4-[[2-[4-(cyclopropylcarbamoylamino)phenyl]-6-[(3S)-3-methylmorpholin-4-yl]pyrimidin-4-yl]methylsulfonyl]phenyl]acetamide]
21 | 0.011 | C[C@H]1COCCN1c1cc(CS(=O)(=O)CCO)nc(-c2ccc(NC(=O)NC3CC3)cc2)n1 [Example 43d, 3-cyclopropyl-1-[4-[4-(2-hydroxyethylsulfonylmethyl)-6-[(3S)-3-methylmorpholin-4-yl]pyrimidin-2-yl]phenyl]urea]
22 | 0.0071 | C[C@H]1COCCN1c1cc(CS(=O)(=O)CC(N)=O)nc(-c2ccc(NC(=O)NC3CC3)cc2)n1 [Example 43h, 2-[[2-[4-(cyclopropylcarbamoylamino)phenyl]-6-[(3S)-3-methylmorpholin-4-yl]pyrimidin-4-yl]methylsulfonyl]acetamide]
23 | 0.058 | Cc1csc(S(=O)(=O)Cc2cc(N3CCOC[C@@H]3C)nc(-c3ccc(NC(=O)NC4CC4)cc3)n2)n1 [Example 43i, 3-cyclopropyl-1-[4-[4-[(3S)-3-methylmorpholin-4-yl]-6-[(4-methyl-1,3-thiazol-2-yl)sulfonylmethyl]pyrimidin-2-yl]phenyl]urea]
24 | 0.041 | CS(=O)(=O)Cc1cc(N2CCOCC2)nc(-c2ccc(NC(=O)N3CCOCC3)cc2)n1 [Example 45g, N-[4-[4-(methylsulfonylmethyl)-6-morpholin-4-yl-pyrimidin-2-yl]phenyl]morpholine-4-carboxamide]
